Source: ChEMBL document CHEMBL2163339, “Discovery of potent inhibitors of human and mouse fatty acid amide hydrolases” (J Med Chem, 2012)
Activity calls are given as the source filed them. The rule behind the calls is not given here.

molecular target: T1, Fatty-acid amide hydrolase 1 (Mus musculus) (UniProt O08914); test: Non-competitive inhibition of mouse FAAH isolated from brain homogenate using [3H-ethanolamine]AEA as substrate by Lineweaver-Burk plot analysis
T1 sequence (whole entry): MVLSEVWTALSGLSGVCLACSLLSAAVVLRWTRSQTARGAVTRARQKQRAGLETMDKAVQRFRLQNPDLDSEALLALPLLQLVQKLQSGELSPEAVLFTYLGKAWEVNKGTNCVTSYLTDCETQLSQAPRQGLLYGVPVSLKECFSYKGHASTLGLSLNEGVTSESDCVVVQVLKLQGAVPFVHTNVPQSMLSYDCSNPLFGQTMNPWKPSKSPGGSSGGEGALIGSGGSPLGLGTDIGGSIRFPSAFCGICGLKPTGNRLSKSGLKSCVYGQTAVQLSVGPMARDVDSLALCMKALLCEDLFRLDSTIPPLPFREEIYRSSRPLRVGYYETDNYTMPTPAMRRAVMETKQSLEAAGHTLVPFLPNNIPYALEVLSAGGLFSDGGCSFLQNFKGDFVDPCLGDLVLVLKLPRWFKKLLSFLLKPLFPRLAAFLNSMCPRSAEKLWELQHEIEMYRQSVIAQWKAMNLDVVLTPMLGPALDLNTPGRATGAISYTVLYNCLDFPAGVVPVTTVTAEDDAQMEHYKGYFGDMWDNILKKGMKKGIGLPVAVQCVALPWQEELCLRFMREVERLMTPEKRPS

| Compound | inhibition |
| --- | --- |
| Cc1cc(C(N)=O)c(-c2cccc(OC(=O)NCCCCCCc3ccccc3)c2)s1 | Active |

molecular target: Cannabinoid receptor 1 (Mus musculus) (UniProt P47746); test: Displacement of [3H]CP55.940 from CB1 receptor in mouse brain fraction; format: tissue-based; also: test concentration or dose not given here
Sequence (P47746 whole entry): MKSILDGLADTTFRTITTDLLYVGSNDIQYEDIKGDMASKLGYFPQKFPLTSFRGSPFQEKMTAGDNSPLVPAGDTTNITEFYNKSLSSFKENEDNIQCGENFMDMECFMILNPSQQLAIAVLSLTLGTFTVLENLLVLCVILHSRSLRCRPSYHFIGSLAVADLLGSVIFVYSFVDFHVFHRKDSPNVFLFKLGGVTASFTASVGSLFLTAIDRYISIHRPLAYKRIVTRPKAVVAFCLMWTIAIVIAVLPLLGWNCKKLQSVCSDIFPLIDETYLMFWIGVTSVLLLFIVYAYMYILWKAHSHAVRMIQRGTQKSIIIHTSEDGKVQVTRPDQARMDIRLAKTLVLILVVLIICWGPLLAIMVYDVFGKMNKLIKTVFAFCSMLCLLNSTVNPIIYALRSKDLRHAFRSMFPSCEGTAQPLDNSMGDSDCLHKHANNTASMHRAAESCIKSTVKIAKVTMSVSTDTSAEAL

| Compound | Activity |
| --- | --- |
| Cc1cc(C(N)=O)c(-c2cccc(OC(=O)NCCCCCCc3ccccc3)c2)s1 | inactive |

organism: Mus musculus; test: Inhibition of DAGL-mediated 2AG synthesis in mouse brain homogenate using […] as substrate incubated for 20 mins prior to substrate addition; format: tissue-based

| Compound | inhibition |
| --- | --- |
| Cc1cc(C(N)=O)c(-c2cccc(OC(=O)NCCCCCCc3ccccc3)c2)s1 | inactive |

molecular target: T2, Fatty-acid amide hydrolase 1 (Homo sapiens, UniProt O00519); test: Inhibition of human recombinant FAAH
T2 sequence (O00519 whole entry): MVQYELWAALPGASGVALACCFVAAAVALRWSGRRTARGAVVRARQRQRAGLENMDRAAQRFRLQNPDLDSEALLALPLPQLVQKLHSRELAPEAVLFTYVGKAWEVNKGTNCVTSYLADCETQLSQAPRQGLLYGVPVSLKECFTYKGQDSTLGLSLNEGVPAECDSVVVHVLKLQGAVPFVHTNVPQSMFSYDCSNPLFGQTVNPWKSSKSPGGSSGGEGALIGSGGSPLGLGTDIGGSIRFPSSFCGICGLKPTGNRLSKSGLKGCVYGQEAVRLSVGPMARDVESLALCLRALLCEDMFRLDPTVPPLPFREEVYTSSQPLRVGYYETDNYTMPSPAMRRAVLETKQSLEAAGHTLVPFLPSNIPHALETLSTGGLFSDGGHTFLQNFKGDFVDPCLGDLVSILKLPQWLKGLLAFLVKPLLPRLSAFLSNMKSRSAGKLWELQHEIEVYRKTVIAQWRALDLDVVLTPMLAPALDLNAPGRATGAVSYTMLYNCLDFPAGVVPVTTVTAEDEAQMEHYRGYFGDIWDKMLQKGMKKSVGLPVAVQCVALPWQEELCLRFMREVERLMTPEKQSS

| Compound | IC50 |
| --- | --- |
| NC(=O)c1cccc(-c2cccc(OC(=O)NCCCCCCc3ccccc3)c2)c1 | 36 nM |

molecular target: T1, Fatty-acid amide hydrolase 1 (Mus musculus); test: Reversible inhibition of mouse FAAH isolated from brain homogenate using [3H-ethanolamine]AEA as substrate incubated for 20 mins prior to substrate addition measured after 18 hrs by […] method

| Compound | inhibition |
| --- | --- |
| NC(=O)c1ccn(-c2cccc(OC(=O)NCCOCCOc3ccc(F)cc3)c2)c1 | Active |
| Cc1cc(C(N)=O)c(-c2cccc(OC(=O)NCCCCCCc3ccccc3)c2)s1 | Active |
| O=C(CCCCCCc1ccccc1)c1ncc(-c2ccccn2)o1 | Active |

molecular target: Voltage-gated inwardly rectifying potassium channel KCNH2 (Homo sapiens, UniProt Q12809); test: Inhibition of human ERG expressed in CHOK1 cells for 5 mins by automated patch clamp assay; format: cell-based, CHO-K1
Sequence (Q12809 whole entry): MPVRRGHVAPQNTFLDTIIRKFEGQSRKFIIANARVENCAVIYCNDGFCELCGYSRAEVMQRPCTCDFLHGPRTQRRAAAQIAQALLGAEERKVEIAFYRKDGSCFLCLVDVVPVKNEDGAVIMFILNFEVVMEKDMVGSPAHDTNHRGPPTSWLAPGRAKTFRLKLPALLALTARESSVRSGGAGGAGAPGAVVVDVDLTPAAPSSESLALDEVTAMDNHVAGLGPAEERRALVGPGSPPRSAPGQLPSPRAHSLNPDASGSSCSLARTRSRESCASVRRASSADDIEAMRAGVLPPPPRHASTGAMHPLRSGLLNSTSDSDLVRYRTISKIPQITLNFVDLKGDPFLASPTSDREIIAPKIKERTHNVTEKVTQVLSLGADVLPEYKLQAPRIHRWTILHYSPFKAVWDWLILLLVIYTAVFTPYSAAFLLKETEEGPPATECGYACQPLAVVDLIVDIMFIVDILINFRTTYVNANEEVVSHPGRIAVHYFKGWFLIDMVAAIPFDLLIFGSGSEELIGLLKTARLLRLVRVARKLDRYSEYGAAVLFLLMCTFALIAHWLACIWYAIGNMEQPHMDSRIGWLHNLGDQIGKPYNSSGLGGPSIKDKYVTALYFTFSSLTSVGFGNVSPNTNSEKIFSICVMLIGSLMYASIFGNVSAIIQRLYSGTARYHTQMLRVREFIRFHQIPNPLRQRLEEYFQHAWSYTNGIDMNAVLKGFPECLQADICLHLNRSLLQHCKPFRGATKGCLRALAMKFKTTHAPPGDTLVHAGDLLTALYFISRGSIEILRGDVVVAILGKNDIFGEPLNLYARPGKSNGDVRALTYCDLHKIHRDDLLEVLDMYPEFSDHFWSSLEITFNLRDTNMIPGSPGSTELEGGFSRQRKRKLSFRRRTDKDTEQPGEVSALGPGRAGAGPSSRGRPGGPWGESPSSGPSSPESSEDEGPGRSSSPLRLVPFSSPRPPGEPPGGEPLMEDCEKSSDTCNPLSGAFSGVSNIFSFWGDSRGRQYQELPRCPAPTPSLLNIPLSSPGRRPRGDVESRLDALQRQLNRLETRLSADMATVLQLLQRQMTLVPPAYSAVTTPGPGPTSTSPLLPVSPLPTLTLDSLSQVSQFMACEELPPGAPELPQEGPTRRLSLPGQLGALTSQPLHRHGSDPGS

| Compound | IC50 |
| --- | --- |
| Cc1cc(C(N)=O)c(-c2cccc(OC(=O)NCCCCCCc3ccccc3)c2)s1 | > 10000 nM |

molecular target: T3, Fatty-acid amide hydrolase 1 (Mus musculus, UniProt O08914); test: Inhibition of mouse FAAH isolated from brain homogenate using [3H-ethanolamine]AEA as substrate incubated for 20 mins prior to substrate addition measured after 15 mins by beta counting analysis
T3 sequence (O08914 whole entry): T1 sequence (whole entry)

| Compound | IC50 | Ki |
| --- | --- | --- |
| NC(=O)c1ccn(-c2cccc(OC(=O)NCCOCCOc3ccc(F)cc3)c2)c1 | 31 nM | 8 nM |
| Cc1cc(C(N)=O)c(-c2cccc(OC(=O)NCCCCCCc3ccccc3)c2)s1 | 1.9 nM | 0.5 nM |
| NC(=O)c1cccc(-c2cccc(OC(=O)NCCCCCCc3ccccc3)c2)c1 | 14 nM | – |

molecular target: Cannabinoid receptor 2 (Mus musculus) (UniProt P47936); test: Displacement of [3H]CP55.940 from CB2 receptor in mouse spleen fraction; format: tissue-based; also: test concentration or dose not given here
Sequence (P47936 whole entry): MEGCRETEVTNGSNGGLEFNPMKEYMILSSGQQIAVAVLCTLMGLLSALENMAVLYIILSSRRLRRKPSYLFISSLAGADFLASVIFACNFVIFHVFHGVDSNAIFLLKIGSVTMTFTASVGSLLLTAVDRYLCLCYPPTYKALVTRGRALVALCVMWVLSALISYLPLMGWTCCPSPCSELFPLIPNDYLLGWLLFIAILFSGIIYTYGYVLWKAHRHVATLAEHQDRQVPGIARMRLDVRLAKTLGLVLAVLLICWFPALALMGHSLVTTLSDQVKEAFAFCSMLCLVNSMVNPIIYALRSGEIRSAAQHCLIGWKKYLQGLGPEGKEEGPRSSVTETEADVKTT

| Compound | Activity |
| --- | --- |
| Cc1cc(C(N)=O)c(-c2cccc(OC(=O)NCCCCCCc3ccccc3)c2)s1 | inactive |

molecular target: T4, Monoglyceride lipase (Mus musculus) (UniProt O35678); test: Inhibition of MAGL-mediated 2AG hydrolysis in mouse brain homogenate using [3H]2OG as substrate incubated for 20 mins prior to substrate addition; format: tissue-based; also: test concentration or dose not given here
T4 sequence (whole entry): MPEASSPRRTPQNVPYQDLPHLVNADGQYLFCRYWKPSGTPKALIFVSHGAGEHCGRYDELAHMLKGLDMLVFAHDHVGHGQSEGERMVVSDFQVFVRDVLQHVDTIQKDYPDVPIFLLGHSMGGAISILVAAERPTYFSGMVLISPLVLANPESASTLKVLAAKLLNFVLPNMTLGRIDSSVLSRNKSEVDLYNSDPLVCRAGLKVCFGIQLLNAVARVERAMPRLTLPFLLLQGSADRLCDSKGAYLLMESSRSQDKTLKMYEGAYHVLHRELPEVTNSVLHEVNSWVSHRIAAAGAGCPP

| Compound | inhibition |
| --- | --- |
| Cc1cc(C(N)=O)c(-c2cccc(OC(=O)NCCCCCCc3ccccc3)c2)s1 | inactive |

molecular target: Transient receptor potential cation channel subfamily V member 1 (Mus musculus) (UniProt Q704Y3); test: Displacement of [3H]RTX from TRPV1 receptor in mouse brain fraction; format: tissue-based; also: test concentration or dose not given here
Sequence (Q704Y3 whole entry): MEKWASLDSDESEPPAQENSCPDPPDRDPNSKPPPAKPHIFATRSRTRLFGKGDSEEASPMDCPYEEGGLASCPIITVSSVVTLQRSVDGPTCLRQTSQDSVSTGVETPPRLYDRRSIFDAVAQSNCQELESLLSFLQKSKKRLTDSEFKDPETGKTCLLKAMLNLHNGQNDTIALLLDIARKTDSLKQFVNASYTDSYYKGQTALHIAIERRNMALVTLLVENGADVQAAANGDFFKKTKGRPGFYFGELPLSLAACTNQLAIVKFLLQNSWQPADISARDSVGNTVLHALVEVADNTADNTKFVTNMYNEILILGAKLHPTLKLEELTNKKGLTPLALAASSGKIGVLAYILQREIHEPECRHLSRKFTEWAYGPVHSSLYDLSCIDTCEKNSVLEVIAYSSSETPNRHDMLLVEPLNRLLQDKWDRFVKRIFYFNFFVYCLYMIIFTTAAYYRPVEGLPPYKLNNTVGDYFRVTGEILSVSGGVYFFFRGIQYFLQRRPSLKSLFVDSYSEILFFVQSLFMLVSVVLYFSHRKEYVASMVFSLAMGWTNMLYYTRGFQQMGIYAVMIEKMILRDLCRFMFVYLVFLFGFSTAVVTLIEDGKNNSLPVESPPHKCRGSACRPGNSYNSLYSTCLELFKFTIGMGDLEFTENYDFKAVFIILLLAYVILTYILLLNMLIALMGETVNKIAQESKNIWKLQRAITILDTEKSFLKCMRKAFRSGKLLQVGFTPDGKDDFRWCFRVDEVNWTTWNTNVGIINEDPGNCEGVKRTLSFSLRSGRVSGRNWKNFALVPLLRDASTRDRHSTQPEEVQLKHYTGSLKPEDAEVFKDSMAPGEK

| Compound | Activity |
| --- | --- |
| Cc1cc(C(N)=O)c(-c2cccc(OC(=O)NCCCCCCc3ccccc3)c2)s1 | inactive |

molecular target: T5, N-acyl-phosphatidylethanolamine-hydrolyzing phospholipase D (Mus musculus) (UniProt Q8BH82); test: Inhibition of NAPE-PLD-meidated AEA synthesis in mouse brain homogenate using [3H]NArPE as substrate incubated for 20 mins prior to substrate addition; format: tissue-based; also: test concentration or dose not given here
T5 sequence (whole entry): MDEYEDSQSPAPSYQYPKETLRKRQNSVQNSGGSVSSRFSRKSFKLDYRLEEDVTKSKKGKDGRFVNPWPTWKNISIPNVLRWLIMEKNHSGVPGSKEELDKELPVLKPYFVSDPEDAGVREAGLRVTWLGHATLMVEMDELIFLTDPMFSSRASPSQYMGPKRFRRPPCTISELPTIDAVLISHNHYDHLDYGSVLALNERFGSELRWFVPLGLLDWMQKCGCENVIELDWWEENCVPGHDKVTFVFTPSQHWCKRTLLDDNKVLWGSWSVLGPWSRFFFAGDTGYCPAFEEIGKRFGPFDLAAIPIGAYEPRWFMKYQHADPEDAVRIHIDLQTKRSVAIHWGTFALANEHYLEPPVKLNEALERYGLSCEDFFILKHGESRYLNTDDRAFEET

| Compound | inhibition |
| --- | --- |
| Cc1cc(C(N)=O)c(-c2cccc(OC(=O)NCCCCCCc3ccccc3)c2)s1 | inactive |
